Columns and labels:
Rattus norvegicus [1] = test: Anti-inflammatory activity against Rattus norvegicus Wistar albino (rat) assessed as inhibition of carrageenan-induced paw edema at 20 mg/kg, ip measured 3 hr after carrageenan challenge by plethysmometer; assay type: functional; conditions: route intraperitoneal
Rattus norvegicus [2] = test: Anti-inflammatory activity against Rattus norvegicus Wistar albino (rat) assessed as inhibition of carrageenan-induced paw edema at 20 mg/kg, ip measured 4 hr after carrageenan challenge by plethysmometer; assay type: functional; conditions: route intraperitoneal
Rattus norvegicus [3] = test: Gastrointestinal toxicity in Rattus norvegicus Wistar (rat) assessed as ulcer index at 30 mg/kg, po measured after 17 hr; assay type: organism-based; design: dose 30 mg/kg, route oral; conditions: in vivo
Rattus norvegicus [4] = test: Anti-inflammatory activity against Rattus norvegicus Wistar albino (rat) assessed as inhibition of carrageenan-induced paw edema at 10 mg/kg, ip measured 3 hr after carrageenan challenge by plethysmometer; assay type: functional; conditions: route intraperitoneal
Rattus norvegicus [5] = test: Gastrointestinal toxicity in Rattus norvegicus Wistar (rat) assessed as ulcer index at 20 mg/kg, po measured after 17 hr; assay type: organism-based; design: dose 20 mg/kg, route oral; conditions: in vivo
Rattus norvegicus [6] = test: Anti-inflammatory activity against Rattus norvegicus Wistar albino (rat) assessed as inhibition of carrageenan-induced paw edema at 10 mg/kg, ip measured 4 hr after carrageenan challenge by plethysmometer; assay type: functional; conditions: route intraperitoneal

SMILES	inhibition in vivo at 20 mg/kg (Rattus norvegicus [1])	inhibition in vivo at 20 mg/kg (Rattus norvegicus [2])	UI (Rattus norvegicus [3])	inhibition in vivo at 10 mg/kg (Rattus norvegicus [4])	UI (Rattus norvegicus [5])	inhibition in vivo at 10 mg/kg (Rattus norvegicus [6])
O=C(N/C(=C/c1ccccc1)c1nc2ccc([N+](=O)[O-])cc2[nH]1)c1ccccc1	33.3%	50%				
COc1ccc(/C=C(/NC(=O)c2ccccc2)c2nc3ccc([N+](=O)[O-])cc3[nH]2)cc1	24.2%	51.3%	1.41			
O=C(N/C(=C/c1ccccc1Cl)c1nc2ccc([N+](=O)[O-])cc2[nH]1)c1ccccc1	42.4%	59%	0.75			
Cc1ccc2nc(/C(=C\c3ccccc3)NC(=O)c3ccccc3)[nH]c2c1	27.3%	46.1%				
COc1ccc(/C=C(/NC(=O)c2ccccc2)c2nc3ccc(C)cc3[nH]2)cc1	30.3%	53.8%				
Cc1ccc2nc(/C(=C\c3ccccc3Cl)NC(=O)c3ccccc3)[nH]c2c1	36.4%	50%				
O=C(N/C(=C/c1ccccc1)c1nc2ccccc2[nH]1)c1ccccc1	39.4%	46.1%				
Cc1ccc(/C=C(/NC(=O)c2ccccc2)c2nc3ccccc3[nH]2)cc1	39.4%	47.4%	1			
O=C(N/C(=C/c1ccc(O)cc1)c1nc2ccccc2[nH]1)c1ccccc1	27.3%	47.4%				
COc1ccc(/C=C(/NC(=O)c2ccccc2)c2nc3ccccc3[nH]2)cc1	39.4%	35.9%				
O=C(N/C(=C/c1ccccc1Cl)c1nc2ccccc2[nH]1)c1ccccc1	30.3%	43.6%				
CN(C)c1ccc(/C=C(/NC(=O)c2ccccc2)c2nc3ccccc3[nH]2)cc1	18.2%	34.6%				
COc1ccc2c(c1)c(CC(=O)O)c(C)n2C(=O)c1ccc(Cl)cc1 [INDOMETHACIN]				48.5%	4.5	77.2%
